Test results taken from BindingDB's records for patent WO2022076764 (BRISTOL-MYERS SQUIBB COMPANY, 2022).

How the values were obtained:
[1] = target: T1, N-formyl peptide receptor 2 (Homo sapiens, UniProt P25090)
T1 sequence (P25090 whole entry): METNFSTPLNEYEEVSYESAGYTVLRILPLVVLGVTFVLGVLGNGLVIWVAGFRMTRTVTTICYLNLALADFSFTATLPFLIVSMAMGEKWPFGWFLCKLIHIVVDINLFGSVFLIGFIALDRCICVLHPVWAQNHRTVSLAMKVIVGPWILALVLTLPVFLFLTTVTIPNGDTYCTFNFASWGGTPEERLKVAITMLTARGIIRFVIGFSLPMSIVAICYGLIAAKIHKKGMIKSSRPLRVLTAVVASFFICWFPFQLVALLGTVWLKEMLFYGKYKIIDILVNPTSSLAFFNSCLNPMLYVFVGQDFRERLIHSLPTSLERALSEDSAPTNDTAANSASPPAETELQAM

fMet-Leu-Phe receptor = target: T2, fMet-Leu-Phe receptor (Homo sapiens, UniProt P21462)
T2 sequence (P21462 whole entry): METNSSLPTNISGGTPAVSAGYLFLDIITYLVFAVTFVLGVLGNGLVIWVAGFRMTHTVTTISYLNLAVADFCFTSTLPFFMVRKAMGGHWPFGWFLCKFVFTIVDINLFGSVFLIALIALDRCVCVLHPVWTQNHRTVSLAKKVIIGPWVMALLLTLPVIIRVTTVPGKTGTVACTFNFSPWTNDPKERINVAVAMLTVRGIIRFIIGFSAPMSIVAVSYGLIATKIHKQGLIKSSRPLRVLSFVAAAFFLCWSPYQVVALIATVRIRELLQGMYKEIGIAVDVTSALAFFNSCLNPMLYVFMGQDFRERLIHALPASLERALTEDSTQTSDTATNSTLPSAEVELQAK

| EC50 [1] | EC50 (fMet-Leu-Phe receptor) | SMILES |
| --- | --- | --- |
| 200 nM | 4 nM | COc1cc(F)c(-n2cc(-c3ccccc3)nc2NC(=O)c2ccc(OC(F)F)cc2)c(F)c1 [WO2022076764, Example 1] |
| 38 nM | 3 nM | COc1ccc(-n2cc(-c3ccccc3)nc2NC(=O)c2ccc(OC(F)F)cc2)cc1 [WO2022076764, Example 2] |
| 88 nM | 8 nM | COc1cccc(-c2cn(-c3c(F)cc(OC)cc3F)c(NC(=O)c3ccc(OC(F)F)cc3)n2)c1 [WO2022076764, Example 3] |
| 400 nM | 11 nM | COc1cc(F)c(-n2cc(-c3ccc(F)cc3)nc2NC(=O)c2ccc(OC(F)F)cc2)c(F)c1 [WO2022076764, Example 4] |
| 140 nM | 47 nM | COc1cc(F)c(-n2cc(-c3ccc(Cl)c(C)c3)nc2NC(=O)c2ccc(OC(F)F)cc2)c(F)c1 [WO2022076764, Example 5] |
| 120 nM | 76 nM | COc1cc(F)c(-n2cc(-c3ccc(C(F)(F)F)cc3)nc2NC(=O)c2ccc(OC(F)F)cc2)c(F)c1 [WO2022076764, Example 6] |
| 190 nM | 33 nM | COc1cc(F)c(-n2cc(-c3ccc(OC(F)F)cc3)nc2NC(=O)c2ccc(OC(F)F)cc2)c(F)c1 [WO2022076764, Example 7] |
| 230 nM | 8 nM | COc1cc(F)c(-n2c(NC(=O)c3ccc(OC(F)F)cc3)nc(-c3ccccc3)c2C)c(F)c1 [WO2022076764, Example 8] |
| 460 nM | 220 nM | COc1cc(F)c(-n2cc(-c3ccc4ccccc4c3)nc2NC(=O)c2ccc(OC(F)F)cc2)c(F)c1 [WO2022076764, Example 9] |
| 200 nM | 7 nM | COc1cc(F)c(-n2cc(-c3cccc(F)c3)nc2NC(=O)c2ccc(OC(F)F)cc2)c(F)c1 [WO2022076764, Example 10] |
| 140 nM | 24 nM | COc1cc(F)c(-n2cc(-c3ccc(Cl)cc3)nc2NC(=O)c2ccc(OC(F)F)cc2)c(F)c1 [WO2022076764, Example 11] |
| 450 nM | 15 nM | COc1cc(F)c(-n2cc(-c3cccc(Cl)c3)nc2NC(=O)c2ccc(OC(F)F)cc2)c(F)c1 [WO2022076764, Example 12] |
| 550 nM | 53 nM | COc1cc(F)c(-n2c(NC(=O)c3ccc(OC(F)F)cc3)nc(-c3ccc(Cl)cc3)c2C)c(F)c1 [WO2022076764, Example 13] |
| 160 nM | 39 nM | COc1ccc(-c2cn(-c3c(F)cc(OC)cc3F)c(NC(=O)c3ccc(OC(F)F)cc3)n2)cc1 [WO2022076764, Example 14] |
| 130 nM | 23 nM | COc1cc(F)c(-n2cc(-c3ccc(C)cc3)nc2NC(=O)c2ccc(OC(F)F)cc2)c(F)c1 [WO2022076764, Example 15] |
| 230 nM | 27 nM | COc1cc(F)c(-n2cc(-c3ccc(C#N)cc3)nc2NC(=O)c2ccc(OC(F)F)cc2)c(F)c1 [WO2022076764, Example 16] |
| 46 nM | 5 nM | COc1cc(F)c(-n2cc(-c3cccc(C#N)c3)nc2NC(=O)c2ccc(OC(F)F)cc2)c(F)c1 [WO2022076764, Example 17] |
| 400 nM | 51 nM | COc1cc(F)c(-n2cc(-c3ccc(Cl)c(Cl)c3)nc2NC(=O)c2ccc(OC(F)F)cc2)c(F)c1 [WO2022076764, Example 18] |
| 93 nM | 28 nM | COc1ccc(-n2cc(-c3ccc4c(c3)CCO4)nc2NC(=O)c2ccc(OC(F)F)cc2)cc1 [WO2022076764, Example 19] |
| 19 nM | 5 nM | COc1ccc(-n2cc(-c3ccnc(Cl)c3)nc2NC(=O)c2ccc(OC(F)F)cc2)cc1 [WO2022076764, Example 20] |
| 76 nM | 29 nM | COc1ccc(-n2cc(-c3ccc(F)cc3F)nc2NC(=O)c2ccc(OC(F)F)cc2)cc1 [WO2022076764, Example 21] |

| EC50 [1] | EC50 (fMet-Leu-Phe receptor) | SMILES |
| --- | --- | --- |
| 140 nM | 86 nM | COc1ccc(-n2cc(-c3ccc4sccc4c3)nc2NC(=O)c2ccc(OC(F)F)cc2)cc1 [WO2022076764, Example 22] |
| 44 nM | 28 nM | COc1ccc(-n2cc(-c3nc4ccccc4s3)nc2NC(=O)c2ccc(OC(F)F)cc2)cc1 [WO2022076764, Example 23] |
| 110 nM | 9 nM | COc1ccc(-n2cc(-c3nccs3)nc2NC(=O)c2ccc(OC(F)F)cc2)cc1 [WO2022076764, Example 24] |
| 47 nM | 6 nM | COc1cc(F)c(-n2cc(-c3ccccc3F)nc2NC(=O)c2ccc(OC(F)F)cc2)c(F)c1 [WO2022076764, Example 25] |
| 400 nM | 72 nM | COc1ccc(-n2cc(-c3nc4cc(Cl)ccc4o3)nc2NC(=O)c2ccc(OC(F)F)cc2)cc1 [WO2022076764, Example 26] |
| 660 nM | 55 nM | COc1ccc(-n2cc(C3CCCCC3)nc2NC(=O)c2ccc(OC(F)F)cc2)cc1 [WO2022076764, Example 27] |
| 1030 nM | 700 nM | COc1ccc(-n2cc(-c3ccccn3)nc2NC(=O)c2ccc(OC(F)F)cc2)cc1 [WO2022076764, Example 28] |
| 32 nM | 15 nM | CCOC(=O)c1cc(-c2cn(-c3ccc(OC)cc3)c(NC(=O)c3ccc(OC(F)F)cc3)n2)on1 [WO2022076764, Example 29] |
| 100 nM | 9 nM | CCOC(=O)c1cn(-c2ccc(OC)cc2)c(NC(=O)c2ccc(OC(F)F)cc2)n1 [WO2022076764, Example 30] |
| > 10000 nM | 320 nM | COc1ccc(-n2cc(C34CC5CC(CC(C5)C3)C4)nc2NC(=O)c2ccc(OC(F)F)cc2)cc1 [WO2022076764, Example 31] |
| 110 nM | 18 nM | COc1ccc(-n2cc(C(C)(C)C)nc2NC(=O)c2ccc(OC(F)F)cc2)cc1 [WO2022076764, Example 32] |
| 940 nM | 39 nM | COc1cc(F)c(-n2cc(-c3ccccc3F)nc2NC(=O)c2ccc(OC(F)F)cc2)c(F)c1 [WO2022076764, Example 33] |
| 120 nM | 16 nM | COc1cc(F)c(-n2cc(-c3ccnc(Cl)c3)nc2NC(=O)c2ccc(OC(F)F)cc2)c(F)c1 [WO2022076764, Example 34] |
| 1400 nM | 99 nM | COc1cc(F)c(-n2cc(CC(C)C)nc2NC(=O)c2ccc(OC(F)F)cc2)c(F)c1 [WO2022076764, Example 35] |
| 320 nM | 31 nM | COc1cc(F)c(-n2cc(-c3ccc(F)c(F)c3)nc2NC(=O)c2ccc(OC(F)F)cc2)c(F)c1 [WO2022076764, Example 36] |
| 800 nM | 16 nM | COc1cc(F)c(-n2cc(C3CC3)nc2NC(=O)c2ccc(OC(F)F)cc2)c(F)c1 [WO2022076764, Example 37] |
| 620 nM | 15 nM | CCOC(=O)c1cn(-c2c(F)cc(OC)cc2F)c(NC(=O)c2ccc(OC(F)F)cc2)n1 [WO2022076764, Example 38] |
| 1000 nM | 21 nM | CCc1cn(-c2c(F)cc(OC)cc2F)c(NC(=O)c2ccc(OC(F)F)cc2)n1 [WO2022076764, Example 39] |
| 1000 nM | 11 nM | COc1cc(F)c(-n2cc(-c3nccs3)nc2NC(=O)c2ccc(OC(F)F)cc2)c(F)c1 [WO2022076764, Example 40] |
| 230 nM | 26 nM | COc1cc(F)c(-n2cc(C3CCOCC3)nc2NC(=O)c2ccc(OC(F)F)cc2)c(F)c1 [WO2022076764, Example 41] |
